Positions of bridges follow the written chain, without caps; N, C: chain ends. Chains are numbered I, II in the order given. No end group written: not given here.
Experiments:
[1] = Heparin affinity chromatography; conditions: elute in high-affinity heparin binding fraction (0.7M to 2.0M NaCl)
Text: The eluted proteins are then contacted with a heparin affinity resin. The ordinarily skilled artisan will readily realize that this step is best achieved in a column chromatography mode. Heparin affinity columns are commercially available from some of the same vendors mentioned above. In this step, the molecules of interest, both MPF-4 or CPF-4, bind to the heparin column and are eluted using an increasing linear salt gradient. The preferred salt is NaCl, and the portion of the gradient that is preferably collected is the 0.1-2.0M portion. The more highly preferred portion of the gradient to collect is the 0.7-2.0M portion.
The C4-pool was further fractionated by heparin affinity chromatography on a Econo-pac™ 5 ml heparin-sepharose cartridge (BioRad, Richmond, Calif. 94804). The bound proteins were eluted by a linear gradient of 0 to 2.0M NaCl in phosphate buffer saline (PBS) at a flow rate of 2.0 ml/min. The proteins that eluted from the column were pooled into three fractions: (1) non-heparin binding (flow through), (2) low-affinity heparin binding (0 to 0.7M NaCl), and (3) high-affinity heparin binding (0.7M to 2.0M NaCl) fractions.

endothelial cells = experiment: Endothelial cell proliferation inhibition assay; assay type: cell-based, bovine; conditions: endothelial cells with 20 ng/ml fibroblast growth factor, four days growth, cell count; for IC50, inhibition of endothelial cell proliferation: average of 4 wells; for IC50: molar figure in parentheses
Experimental: Primary retinal capillary endothelial cell cultures were prepared in substantial accordance with the procedure described in Buzney et al., Retinal Vascular Endothelial Cells and Pericytes: Differential Growth Characteristics in vitro, Invest. Ophthalmol. Visual Sci. 24: 470-483 (1983) and separated from contaminating cells as described in Voyta et al., Identification and Isolation of Endothelial Cells Based on their Increased Uptake of Acetylated-low density Lipoprotein, J. Cell Biol. 99: 2034-2040 (1981).
Alternatively, bovine heart endothelial cells were obtained (American Type Culture Collection; Rockville, Md. 20852) for use in the assay. Irrespective of source, the endothelial cells were seeded into 24 well tissue culture plates at a cell density of 10,000 cells/well in Dulbecco's modified Eagle Medium (GIBCO; Grand Island, N.Y.) supplemented with 5% bovine serum albumin, 1% penicillin-streptomycin, 1% L-glutamine, and 20 ng/ml fibroblast growth factor. Immediately after seeding the cells, various amounts of PF-4 (Sigma Chemical Co.; St. Louis, Mo. 63178), MPF-4, or CPF-4 (isolated as describe in the above examples) were added to individual growth wells. MPF-4 and CPF-4 were tested at final concentrations ranging from 0.001 to 1 μ/ml. For comparison, native PF-4 was tested over a range of 0.001 to 3 μ/ml, and supplemented medium alone served as the negative control. The endothelial cell cultures were allowed to grow for four days at 37 C., 5% CO2 in a humidified tissue culture incubator. The cultures were then harvested individually by trypsinization and counted using a Zm-Coulter Counter (Coulter Electronics. Inc.; Opa Locka, Fla. 33054).
The results were plotted in FIG. 1, and each point on the graph represented the average of 4 data points; ie […]. […] The inhibitory concentration for MPF-4 is close to the physiological range of PF-4 found in human plasma (Id.).

heparin binding [1]	Molecule	IC50, inhibition of endothelial cell proliferation (endothelial cells)	IC50 (endothelial cells) [nM]
bind heparin	MPF-4: 54 amino acid protein, SEQ ID NO:1; homologous with the 54 C-terminal residues of PF-4, beginning with Ser-17 (SQVRPRHITSLEVIKAGPHCPTAQLIATLKNGRKICLDLQAPLYKKIIKKLLES)	0.03 to 0.05 µg/mL	~7
	PF-4: native human platelet factor-4 (Sigma Chemical Co.), tested for comparison [reference compound]	0.8 to 1 µg/mL	~130
bind heparin	CPF-4: 16 amino acid chain (SEQ ID NO:2) disulfide bonded to the 54 amino acid chain of MPF-4 (SEQ ID NO:1) (protein, disulfide I:10-II:20, I:12-II:36; not fully specified) chain 1: EAEEDGDLQCLCVKTT chain 2: SQVRPRHITSLEVIKAGPHCPTAQLIATLKNGRKICLDLQAPLYKKIIKKLLES	approximately 150 ng/ml	20

From patent publication US5538949A, “Modified platelet factor-4 and cleaved platelet factor 4” (Eli Lilly and Company, priority 1995, dated 1996)
